Test results published in publication PMC3160846 (PLoS ONE, 2011).
Read-outs that look alike come from different tables or passages of the source.

How the values were obtained:
[1] = target: T1, FLT3 (Homo sapiens, UniProt P36888); test: Kinase-Glo inhibition assay, FLT3; type: biochemical
T1 construct: FLT3 kinase catalytic domain (residues Y567∼S993); made in house; host or cells: Sf9 insect cells
Description: FLT3 – GST-tagged FLT3-KDWT containing the FLT3 kinase catalytic domain (residues Y567∼S993) were expressed in Sf9 insect cells. The FLT3WT Kinase-Glo assays were carried out in 96-well plates at 30°C for 4 h with the tested compound.
(§1) Composition of the reaction buffers used in different kinase inhibitory assays is described in Figure S3.
75 ng GST-FLT3-KDWT proteins, 25 mM HEPES, pH 7.4, 4 mM MnCl2, 10 mM MgCl2, 2mM DTT, 0.02% Triton X-100, 0.1 mg/ml bovine serum albumin, 25 μM Her2 peptide substrate, 0.5 mM Na3VO4, and 1 μM ATP.

[2] = system: HONE-1 cells; test: Endo-replication (polyploidy), microscopy and flow cytometry, HONE-1; type: cell-based, Human; conditions: HONE-1, 48 h
Description: Cell cycle progression was monitored using flow cytometry. After drug treatment, cells were trypsinized, washed with PBS and fixed in 80% ethanol at −20°C for 1 h. The fixed cells were stained with propidium iodide (containing RNase) at room temperature in the dark for 20 min. The DNA content was determined by a fluorescence-activated cell sorting IV flow cytometer (BD Biosciences, Franklin Lakes, NJ). For each analysis, 10,000 cells were counted and the percentage of cells in each phase was calculated using the ModFit LT software (Verity Software House, Topsham, ME). Experiments were repeated independently at least three times.

[3] = system: OECM-1 cells; test: Clonogenic assay, OECM-1; type: cell-based, Human; conditions: Homo sapiens, OECM1; OECM-1, oral, p53 mutant, MDR1 negative; read-out: IC50, anti-proliferative activity
Description: (§2) Human lung adenocarcinoma A549 cells and NTUB1 bladder cancer cells were maintained in RPMI supplied with 10% fetal bovine serum. […] KB-derived MRP1-expressing cell line, KB-7D, was maintained in growth medium supplemented with 7 µM VP-16.
(§3) Two hundred cells in logarithmic growth phase were seeded in a 6-well plate. The cells were exposed to various concentrations of the test drugs for a three-generation period. At the end of the incubation period, cells were fixed and stained with 50% ethanol containing 0.5% methylene blue for 30 min. The plates were washed five times with water and allowed to air-dry. Colonies were countered manually. […] Each value represents the average of at least three independent experiments run in triplicates.

[4] = system: various human cancer cell lines; test: Clonogenic assay, panel of cancer cell lines; type: cell-based; conditions: for IC50: Homo sapiens
Description: as §2, with “serum. KB-derived MDR1-expressing cell lines (i.e. KB-VIN10 and KB-S15) and NTUB1-dervided MDR1-expressing cell line (i.e. NTU0.017) were maintained in growth medium supplemented with 10 nM vincristine, 15 nM and 17 nM paclitaxel respectively.” for “serum.”
(§4) Two hundred cells in logarithmic growth phase were seeded in a 6-well plate. The cells were exposed to various concentrations of the test drugs for a three-generation period. At the end of the incubation period, cells were fixed and stained with 50% ethanol containing 0.5% methylene blue for 30 min. The plates were washed five times with water and allowed to air-dry. Colonies were countered manually. The IC50 value resulting from 50% inhibition of cell growth was calculated graphically as a comparison with the growth of the control group. Each value represents the average of at least three independent experiments run in triplicates.

[5] = target: T2, VEGFR2 (Homo sapiens, UniProt P35968); test: Kinase inhibition assay, VEGFR2; type: biochemical
T2 construct: VEGFR2 (residues V789-V1356) containing kinase domain; GST; made in house; host or cells: Sf9 insect cells
T2 sequence (P35968 789-1356): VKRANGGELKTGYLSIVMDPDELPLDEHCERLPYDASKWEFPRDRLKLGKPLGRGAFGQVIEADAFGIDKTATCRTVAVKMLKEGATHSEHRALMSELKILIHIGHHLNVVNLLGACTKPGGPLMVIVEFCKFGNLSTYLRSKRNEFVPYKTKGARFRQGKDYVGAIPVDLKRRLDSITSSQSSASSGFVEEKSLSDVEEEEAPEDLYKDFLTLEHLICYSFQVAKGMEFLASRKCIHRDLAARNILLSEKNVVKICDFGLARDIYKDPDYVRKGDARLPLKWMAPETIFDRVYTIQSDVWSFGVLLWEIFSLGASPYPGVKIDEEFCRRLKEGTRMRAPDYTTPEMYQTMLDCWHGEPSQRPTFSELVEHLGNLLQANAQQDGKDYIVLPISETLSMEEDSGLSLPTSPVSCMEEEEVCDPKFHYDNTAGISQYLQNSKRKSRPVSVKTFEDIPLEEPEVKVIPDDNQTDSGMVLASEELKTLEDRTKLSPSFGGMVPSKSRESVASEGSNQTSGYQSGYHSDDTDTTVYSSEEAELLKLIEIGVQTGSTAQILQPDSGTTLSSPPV
Description: (§5) VEGFR1/2 – The recombinant GST-tagged VEGFR1 (residues R781-I1338) or VEGFR2 (residues V789-V1356) containing kinase domain were expressed in Sf9 insect cells. The kinase assay was carried out in 96-well plates with the tested compound at 30°C for 120 min.
as §1
(§6) 25 mM HEPES pH 7.4, 10 mM MgCl2, 4mM MnCl2, 0.5mM Na3VO4, 2 mM DTT, 0.02% Triton X100, 0.01% BSA, 1 mM ATP, 2 mM polyGlu4:Tyr peptide, 50~100 ng recombinant VEGFR1 or VEGFR2.

[6] = system: A549 cells; test: Clonogenic assay, A549; type: cell-based, Human; conditions: Homo sapiens; A549, lung, p53 wild-type, MDR1 negative; read-out: IC50, anti-proliferative activity
Description: as §2, §3

[7] = target: T3, VEGFR1 (Homo sapiens, UniProt P17948); test: Kinase inhibition assay, VEGFR1; type: biochemical
T3 construct: GST-tagged VEGFR1 (residues R781-I1338); GST; made in house; host or cells: Sf9 insect cells
T3 sequence (P17948 781-1338): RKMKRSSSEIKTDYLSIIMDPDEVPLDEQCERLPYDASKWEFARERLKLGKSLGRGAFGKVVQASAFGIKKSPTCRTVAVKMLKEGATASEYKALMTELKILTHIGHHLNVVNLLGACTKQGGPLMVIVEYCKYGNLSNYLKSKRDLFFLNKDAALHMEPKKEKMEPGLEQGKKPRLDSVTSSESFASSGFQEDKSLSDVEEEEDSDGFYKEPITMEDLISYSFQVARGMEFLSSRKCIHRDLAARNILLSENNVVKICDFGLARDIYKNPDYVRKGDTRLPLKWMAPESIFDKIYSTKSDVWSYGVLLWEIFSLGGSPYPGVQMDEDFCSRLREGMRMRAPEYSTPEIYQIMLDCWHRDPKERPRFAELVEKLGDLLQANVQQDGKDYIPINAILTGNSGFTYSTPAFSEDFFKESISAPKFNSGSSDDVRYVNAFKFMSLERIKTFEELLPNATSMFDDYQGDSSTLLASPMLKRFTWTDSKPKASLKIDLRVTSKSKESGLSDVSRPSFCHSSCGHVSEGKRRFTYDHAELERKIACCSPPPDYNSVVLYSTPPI
Description: as §5, §1, §6

[8] = system: KB-7D cells; test: Clonogenic assay, KB-7D; type: cell-based; conditions: Homo sapiens, KB7D, VP-16 resistant, MRP1 ↑, read-out: IC50, anti-proliferative activity
Description: as §2, with “serum. KB-derived MDR1-expressing cell lines (i.e. KB-VIN10 and KB-S15) and NTUB1-dervided MDR1-expressing cell line (i.e. NTU0.017) were maintained in growth medium supplemented with 10 nM vincristine, 15 nM and 17 nM paclitaxel respectively.” for “serum.”
as §4

[9] = system: HONE-1 cells; test: Caspase-3/-7 activity imaging, HONE-1; type: cell-based, Human; conditions: HONE-1, 60 h
Description: Caspase-3/-7 activity was analyzed with the MagicRed™ DEVD real-time caspase activity detection kit (catalog number #935, Immunochemistry Technologies LLC, Bloomington, MN). Briefly, cells were cultured in chamber-slides and incubated with test agents for various durations. Cells were then incubated with the Caspase-3/-7 substrate MR-(DEVD2) in culture medium for 1 hour, and then co-incubated with Hoechst 33342 for 15 min. Cells were viewed with a UV-enabled inverted-microscope at an excitation wavelength of 540 nm–560 nm and emission at 610 nm. Experiments were repeated independently at least two times.

[10] = target: T4, EGFR (Homo sapiens, UniProt P00533); test: Kinase inhibition assay, EGFR; type: biochemical
T4 construct: GST-tagged EGFR (residues G696-G1022) containing kinase domain; GST; made in house; host or cells: Sf9 insect cells
T4 sequence (P00533 696-1022): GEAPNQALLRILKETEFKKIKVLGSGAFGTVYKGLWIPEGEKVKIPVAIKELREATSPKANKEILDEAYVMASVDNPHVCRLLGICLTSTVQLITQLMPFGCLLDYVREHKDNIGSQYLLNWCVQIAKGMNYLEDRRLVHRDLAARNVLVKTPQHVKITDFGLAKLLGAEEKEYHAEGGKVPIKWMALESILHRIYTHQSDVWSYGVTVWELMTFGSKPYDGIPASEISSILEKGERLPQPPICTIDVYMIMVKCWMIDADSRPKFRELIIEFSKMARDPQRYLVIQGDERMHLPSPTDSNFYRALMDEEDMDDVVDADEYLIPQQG
Description: EGFR – The recombinant GST-tagged EGFR (residues G696-G1022) containing kinase domain was expressed in Sf9 insect cells. The kinase assay was carried out in 96-well plates with the tested compound at 37°C for 60 min.
as §1
25 mM Tris pH 7.4 (EGFR), 10 m M MgCl2, 4 mM MnCl2, 0.5 mM Na3VO4, 2 mM DTT, 0.02% Triton X100, 0.01% BSA, […], 2 mM polyGlu4:Tyr peptide, 80~500 ng recombinant EGFR.

[11] = system: NTUB1 cells; test: Clonogenic assay, NTUB1; type: cell-based, Human; conditions: Homo sapiens; NTUB1, bladder, MDR1 negative (parental); read-out: IC50, anti-proliferative activity
Description: as §2, §3

T1 sequence (P36888 567-993): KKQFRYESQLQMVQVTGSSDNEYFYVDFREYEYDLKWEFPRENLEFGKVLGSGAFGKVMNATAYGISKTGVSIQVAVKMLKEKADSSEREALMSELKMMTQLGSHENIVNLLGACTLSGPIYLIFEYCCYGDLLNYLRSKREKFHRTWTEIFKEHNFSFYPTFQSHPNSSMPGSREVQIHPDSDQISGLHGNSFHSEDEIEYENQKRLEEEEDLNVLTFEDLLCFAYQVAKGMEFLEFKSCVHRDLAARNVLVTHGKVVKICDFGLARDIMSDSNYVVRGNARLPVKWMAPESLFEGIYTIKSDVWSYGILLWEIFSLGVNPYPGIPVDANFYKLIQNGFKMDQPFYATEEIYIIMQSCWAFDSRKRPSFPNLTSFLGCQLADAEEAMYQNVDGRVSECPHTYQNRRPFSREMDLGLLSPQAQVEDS

IC50 [1]: > 10000 nM | IC50 ([4]; A549, HONE-1, OECM-1, KB, HT29, NTUB1, MV4-11, IM9, read-out: IC50 against various types of cancer cells): < 500 nM | IC50 ([4]; read-out: IC50 in all tested p53-wildtype/-negative/-mutant cancer cell lines): < 20 nM | IC50 [5]: > 10000 nM | IC50 [6]: 9 nM | IC50 [7]: > 10000 nM | IC50 [8]: 19 nM | IC50 [10]: > 10000 nM
SMILES: CN(C)Cc1ccccc1NC(=O)Nc1ccc(CCNc2ncnc3oc(-c4ccccc4)c(Cl)c23)cc1 [BPR1K653]
formation of polyploidy (populations >4N) [2]: promoted the formation of polyploidy | IC50 [3]: 135 ± 10 nM | effect of verapamil treatment on sensitivity ([4]; MDR-negative and MDR1-expressing cancer cells, verapamil 10 µM, data not shown): could not further increase the sensitivity to BPR1K653 | apoptosis, caspase-3/-7 activity [9]: induced apoptosis | IC50 [11]: 8 ± 4 nM
